Values of other authors as cited in patent US8796195B2 (priority 2007, dated 2014).
“And” between values parts separate entries of the source, which are not always exact repeats. Identical values can stand only once.

Columns and labels:
[1] = based on 48% tetrafluoroboric acid

Row | Structure (SMILES) | pKa | LD50 (toxic by ingestion) [1] [mg/kg]
1 | F [HF, hydrofluoric acid] | 3.4 and ~3.5 | –
2 | F[B-](F)(F)F.[H+] [Tetrafluoroboric acid, tetrafluoroboric acid] | approximately −3 | 100 to 464
